Measurements reported in US20230173090A1, “COMPOSITIONS AND METHODS FOR MODULATING DOPAMINE RECEPTOR ACTIVITY” (The Regents of the University of California, priority 2020, published 2023).

What was measured:
[1] = Photophysical properties (absorbance, photoswitching); type: physicochemical
Procedure: FIGS. 8A-8D. Photophysical properties of P-D1ago. (A) Absorbance spectra of P-D1ago under blue light (460 nm; blue) and UV light (370 nm; grey). (B) P-D1ago repeatedly switches from its trans to cis isomer with UV light and back to trans with blue light. […] Cells were incubated for 1 hour with vehicle (left upper panels), 1 µM surface block (left middle panels), or 1 µM P-D1ago (left lower panels), and were then labeled for 30 minutes with 1.5 µM BG-Alexa647. Cytosolic tdTomato was used as a transfection marker, grey bar = […]. A summary of labeling according to flow cytometry is shown on the right. unpaired two-sided t-test, p = 0.60. n = 3-6 replicates per condition. (D) M labeling as a function of the concentration of P-D1ago. The M was incubated for 1 hour with increasing concentrations of P-D1ago, and then labeled for 30 minutes with 1.5 µM BG-Alexa647. Labeling was measured by flow cytometry. (E) Time course of M labeling with P-D1ago. The M was incubated for different times with 1 µM P-D1ago, and then labeled for 30 minutes with 1.5 µM BG-Alexa647. Labeling was measured by flow cytometry. n = 3-4 replicates per condition. […] This contrasts with the commercially available permeant benzylguanine analog, cell block. […] Cytosolic mTurquoise was used as a transfection marker, grey bar = […]. A summary of labeling according to flow cytometry is shown on the right. unpaired two-sided t-test, ***p < 0.001. n = 3 replicates per condition.

D1R = target: T1, D1R (Homo sapiens, UniProt P21728); assay: D1R-mediated GIRK channel activation assay in HEK293T cells (whole-cell electrophysiology); type: cell-based
T1 construct: expressed in transfected cells; host or cells: HEK293T (A1, A2); HEK293 (A26)
T1 sequence (P21728 whole entry): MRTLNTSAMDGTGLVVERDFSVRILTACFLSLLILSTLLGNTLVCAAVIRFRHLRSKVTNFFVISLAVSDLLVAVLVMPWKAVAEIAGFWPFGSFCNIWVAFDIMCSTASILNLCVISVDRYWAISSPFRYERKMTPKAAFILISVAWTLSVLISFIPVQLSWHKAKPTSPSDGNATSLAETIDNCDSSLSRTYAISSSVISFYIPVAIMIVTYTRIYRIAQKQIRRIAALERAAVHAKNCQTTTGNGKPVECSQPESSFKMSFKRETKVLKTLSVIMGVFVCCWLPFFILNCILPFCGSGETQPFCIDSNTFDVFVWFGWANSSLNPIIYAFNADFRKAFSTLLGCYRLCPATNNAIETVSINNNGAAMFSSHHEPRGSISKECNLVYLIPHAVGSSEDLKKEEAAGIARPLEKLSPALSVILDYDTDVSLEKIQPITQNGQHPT
Procedure: All constructs were cloned into mammalian expression vectors. For the receptor mediated-GIRK activation assay, HEK293T cells were seeded onto 18 mm coverslips and transiently transfected overnight with Lipofectamine 2000 and the following constructs: a receptor, a variant of the membrane-anchor (M; 0.7 µg), GIRK1(F137S) (0.7 µg), and tdTomato (0.2 µg). […] D1R, D5R, or opto-D1R were cotransfected with Gαis13 (0.35 µg), D3R with GαoA (0.7 µg), and M1R or mGluR1 with Gαiq5. Transfected cells were used for electrophysiology, imaging, or flow cytometry experiments.
HEK293T cells were sparsely seeded and maintained in DMEM (Invitrogen) with 10% fetal bovine serum on poly-L-lysine-coated coverslips at 37° C. and 5% CO2. HEK293T cells were voltage clamped in whole-cell configuration 16-48 hours after transfection. […] GluK2 electrophysiology was performed in the presence of 0.3 mg/mL concanavalin A to prevent desensitization. […] Cells were voltage clamped to -60 or -80 mV using an Axopatch 200A (Molecular Devices) amplifier.
For all experiments, compounds were applied using a gravity-driven perfusion system and illumination was applied to the entire field of view using a Polychrome V monochromator (TILL Photonics) through a 20x objective (maximum 0.05 mW/mm^2 at 370 nm and 0.5 mW/mm^2 at 460 nm or 473 nm) or a DG4 (Sutter) through a 20x objective (maximum 0.06 mW/mm^2 at 370 nm and 0.6 mW/mm^2 at 445 nm). pClamp software was used for both data acquisition and control of illumination.
The selection criteria for electrophysiological experiments are that a cell (i) expresses the fluorescent protein transfection marker, and (ii) responds to agonist, indicating the presence of either receptor and GIRK or an LGIC. Cells were not excluded unless the recording was of poor quality (e.g., unstable baseline).
Data were analyzed using GraphPad Prism (GraphPad), Clampfit (Axon instruments), Origin (OriginLab), MATLAB, or ImageJ software. For dose-response curves, data were normalized to vehicle (0%) and DA (100%) and nonlinear regression analysis was performed using the sigmoidal dose-response function in GraphPad Prism. Statistical analyses were performed using GraphPad Prism. All values reported are mean ± S.E.M.
FIGS. 9A-9H. Functional properties of untethered P-D1ago. (A) Schematic representation of a D1R-mediated G protein-coupled inwardly rectifying potassium (GIRK) channel assay in HEK293T cells. Agonist-induced receptor activation results in the recruitment of a heterotrimeric G protein containing the chimeric Gα subunit (Gαis) followed by the release of Gβγ, which activates GIRK channels and enhances inward-current. […] (E) Schematic representation of a highly sensitive D1R-mediated cAMP accumulation assay in HEK293T cells. Agonist-induced D1R activation results in Gs/olfrecruitment followed by the binding of its Gα subunit to adenylate cyclase (AC), which enhances the conversion of ATP to cAMP. cAMP binds the bioluminescence resonance energy transfer 1 (BRET′)-based cAMP sensor CAMYEL^87, resulting in a conformational change in its Epac domain that increases the distance and decreases BRET^1 between the donor Renilla luciferase (Rluc) and the acceptor YFP. […] Optimization and characterization of the D1R MP

intracellular SNAP-tag = target: T2, intracellular SNAP-tag (Homo sapiens, UniProt P16455, A127T/A154D/C150Q/C62A/E30R/G131K/G132T/G153L/K125A/K32I/L33F/M134L/N157G/Q115S/Q116H/R128A/R135S/S151G/S152D/S159E); assay: Block of BG-TMRstar binding to intracellular SNAP-tag expressed in the cytosol; type: cell-based; conditions: 1 µM for 1 hour, then 1.5 µM BG-TMRstar for 20 minutes
T2 construct: expressed in transfected cells
T2 sequence (P16455 1-182 E30R/K32I/L33F/C62A/Q115S/Q116H/K125A/A127T/R128A/G131K/G132T/M134L/R135S/C150Q/S151G/S152D/G153L/A154D/N157G/S159E limits assumed): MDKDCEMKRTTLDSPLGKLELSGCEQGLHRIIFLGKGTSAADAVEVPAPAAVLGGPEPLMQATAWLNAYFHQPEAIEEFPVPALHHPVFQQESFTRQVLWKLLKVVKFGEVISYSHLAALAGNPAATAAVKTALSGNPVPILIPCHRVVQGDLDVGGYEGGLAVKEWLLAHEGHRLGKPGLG

Q: With `CCCN(CCc1ccc(N=Nc2ccc(NC(=O)CNC(=O)CCOCCOCCOCCOCCOCCOCCOCCOCCOCCOCCOCCOCCn3cc(CCC(=O)NCc4ccc(COc5nc(N)nc6nc[nH]c56)cc4)nn3)cc2)cc1)C1CCc2c(O)cccc2C1` (stereo not drawn) [P-D1ago, Benzylguanine-azobenzene-PPHT] as the molecule, how does the “wavelength switching trans-isomer to cis-isomer” value ([1]; UV light) read?
A: 370 nm

Q: And the “wavelength switching cis-isomer back to trans-isomer” value ([1]; blue light)?
A: 460 nm

Q: And the “stability of the cis state” value ([1]; in the dark after illumination with UV light)?
A: stable in the cis state in the dark

Q: And the “effect of untethered P-D1ago on D1R in the GIRK assay” value (D1R; absence of the membrane-anchor (M), 1 µM or 10 µM, trans (blue light) or cis (UV light))?
A: Neither 1 µM or 10 µM P-D1ago, concentrations that fully label the M (FIG. 8D), have any effect on the receptor

Q: What about the “D1R activation by P-D1ago tethered to MEAAAK” value (D1R; tethered to MEAAAK (SEQ ID NO:16), blue light) of the same molecule?
A: only partially activates D1R

Q: What about the “D1R activation in the presence of sub-saturating DA” value (D1R; tethered to MEAAAK, 100 nM and 1 µM DA) of the same molecule?
A: further activated D1R

Q: And the “effect on the ability of DA to activate D1R” value (D1R; tethered to MEAAAK, saturating DA (10 µM))?
A: did not diminish the ability of DA to fully activate D1R

Q: And the “photoactivation of D1R by P-D1ago tethered to the M” value (D1R; tethered to the M, relative to a saturating concentration of DA)?
A: partially photoactivated with blue light (460 nm) and is deactivated with UV light (370 nm)

Q: And the “block of BG-TMRstar binding to intracellular SNAP-tag (membrane permeation)” value (intracellular SNAP-tag)?
A: does not effectively prevent the binding
